System: EpidermFT™ Skin Model (EFT-400) full thickness skin cultures
Test: Affymetrix GeneChip HG U133 Plus 2.0 microarray global gene expression, agent-exposed vs untreated skin cultures
Assay type: cell-based, human
Settings: Salicin 0.5% vs Untreated Control, 24 hr treatment

Structure (SMILES): OCc1ccccc1O[C@@H]1O[C@H](CO)[C@@H](O)[C@H](O)[C@H]1O [Salicin, 2-(Hydroxymethyl)phenyl β-D-glucospyranoside]
- Fold change ING1 (209808_x_at): 2.572
- Fold change IRAK2 (231779_at): 2.734
- Fold change IRAK3 (220034_at): 2.411
- Fold change ITPRIP (225582_at): 2.421
- Fold change JHDM1D (225142_at): 2.825
- Fold change KCNA3 (207237_at): 2.308
- Fold change KCNE4 (222379_at): 2.686
- Fold change KCNE4 (1552508_at): 2.802
- Fold change KCNJ8 (205303_at): 2.493
- Fold change KCNJ8 (205304_s_at): 2.387
- Fold change KLF15 (231015_at): 2.338
- Fold change KLHL29 (229310_at): 2.719
- Fold change LCP1 (208885_at): 2.513
- Fold change LOC285628 (232504_at): 2.636
- Fold change LOC440028 (1562606_a_at): 2.7
- Fold change LOC729222 /// PPFIBP1 (214375_at): 2.426
- Fold change LOC100128821 /// ZEB2 (235593_at): 2.365
- Fold change LOC100132244 (229438_at): 2.299
- Fold change LPAR1 (204036_at): 2.391
- Fold change LPAR1 (204037_at): 2.425
- Fold change LPAR1 (204038_s_at): 2.732
- Fold change LPPR4 (213496_at): 2.406
- Fold change LRCH2 (227688_at): 2.318
- Fold change LRRK2 (229584_at): 2.314
- Fold change MAGEA4 (214254_at): 2.513
- Fold change MAP3K4 (216199_s_at): 2.654
- Fold change MAP3K5 (203836_s_at): 2.356
- Fold change MAP9 (220145_at): 2.4529
- Fold change MASP1 (232224_at): 2.402
- Fold change MASP1 (235770_at): 2.324
- Fold change MESDC1 (223264_at): 2.618
- Fold change MGST1 (239001_at): 2.428
- Fold change MMD (203414_at): 2.313
- Fold change MTHFD2L (220346_at): 2.597
- Fold change MYO3B (1552578_a_at): 2.338
- Fold change NAMPT (217738_at): 2.668
- Fold change NEGR1 (1553194_at): 2.339
- Fold change NEXN (226103_at): 2.323
- Fold change NFKB2 (207535_s_at): 2.67
- Fold change NFKBIZ (223217_s_at): 2.35
- Fold change NOVA1 (205794_s_at): 2.682
- Fold change NR4A1 (202340_x_at): 2.338
- Fold change NRP2 (228699_at): 2.306
- Fold change OLAH (222945_x_at): 2.586
- Fold change PAPPA (201981_at): 2.727
- Fold change PAPPA (224940_s_at): 2.664
- Fold change PAPPA (224941_at): 2.737
- Fold change PAPPA (228128_x_at): 2.482
- Fold change PAPPA (1559400_s_at): 2.415
- Fold change PCDH7 (210941_at): 2.333
- Fold change PCSK1 (205825_at): 2.59
- Fold change PDE4D (211840_s_at): 2.429
- Fold change PEG10 (212092_at): 2.813
- Fold change PF4 (206390_x_at): 2.652
- Fold change PGM2L1 (229256_at): 2.478
- Fold change PHLDA1 (217996_at): 2.515
- Fold change PHTF1 (215285_s_at): 2.498
- Fold change PI15 (229947_at): 2.619
- Fold change PID1 (219093_at): 2.447
- Fold change PID1 (237867_s_at): 2.743
- Fold change PISD (202392_s_at): 2.402
- Fold change PITPNC1 (238649_at): 2.621
- Fold change PLAUR (211924_s_at): 2.357
- Fold change PLEKHA3 (223370_at): 2.302
- Fold change PTGER4 (204897_at): 2.525
- Fold change PTGES (207388_s_at): 2.768
- Fold change PTGES (210367_s_at): 2.519
- Fold change PTGS1 (205128_x_at): 2.327
- Fold change PTGS1 (215813_s_at): 2.306
- Fold change PTHLH (206300_s_at): 2.505
- Fold change PTHLH (211756_at): 2.599
- Fold change PTPRG (204944_at): 2.299
- Fold change QKI (228540_at): 2.426
- Fold change RAB3B (205924_at): 2.634
- Fold change RAB3B (227123_at): 2.514
- Fold change RAB23 (220955_x_at): 2.644
- Fold change RABGGTB (209180_at): 2.305
- Fold change RABGGTB (213704_at): 2.423
- Fold change RAI14 (202052_s_at): 2.503
- Fold change RASSF8 (235996_at): 2.788
- Fold change RGS3 (203823_at): 2.462
- Fold change RGS5 (209070_s_at): 2.7
- Fold change RGS12 (242079_at): 2.358
- Fold change RHOQ (212122_at): 2.398
- Fold change SEC24A (212902_at): 2.298
- Fold change SEMA3A (206805_at): 2.505
- Fold change SETDB2 (235339_at): 2.377
- Fold change SGK1 (201739_at): 2.419
- Fold change SH3RF3 (228461_at): 2.389
- Fold change SHOX (207570_at): 2.312
- Fold change SLC6A15 (232263_at): 2.365
- Fold change SLC11A2 (237106_at): 2.533
- Fold change SLC20A1 (230494_at): 2.526
- Fold change SLC43A3 (210692_s_at): 2.457
- Fold change SLFN11 (226743_at): 2.451
- Fold change SLIT2 (209897_s_at): 2.499
- Fold change SNHG12 (223774_at): 2.339
- Fold change SOCS2 (203373_at): 2.46
- Fold change SPON1 (209437_s_at): 2.36
- Fold change SPON1 (213993_at): 2.499
- Fold change SQSTM1 (213112_s_at): 2.447
- Fold change ST3GAL1 (208322_s_at): 2.644
- Fold change ST3GAL1 (225033_at): 2.64
- Fold change STK17B (205214_at): 2.309
- Fold change SULF1 (212344_at): 2.665
- Fold change TAF1A (206613_s_at): 2.359
- Fold change TAGLN (205547_s_at): 2.426
- Fold change TBC1D1 (212350_at): 2.386
- Fold change TBC1D1 (227945_at): 2.566
- Fold change TGM2 (201042_at): 2.351
- Fold change THBS1 (201108_s_at): 2.756
- Fold change THBS1 (239336_at): 2.417
- Fold change THRAP3 (242163_at): 2.62
- Fold change TMEM38B (222735_at): 2.489

— patent US20120034613A1, “Apparatus and Method for Testing Relationships Between Gene Expression and Physical Appearance of Skin” (NSE Products, Inc., priority 2010, published 2012)
